Measured values reported in patent US10124064B2, “Antimicrobial compositions of aminoglycosidic antibiotics and zinc ion chelators specifically formulated for enhanced inhibition of bacterial colonization and antibacterial efficacy” (University of Cincinnati, priority 2013, dated 2018).

Tested on: S. aureus ATCC 6538
Assay: Porcine deep partial-thickness wound model inoculated with S. aureus; planktonic (flush) and biofilm (scrub) bacterial counts on day 2
Assay type: in vivo, Staphylococcus aureus
Protocol: Summarily, forty-four deep, partial-thickness wounds were created on the paravertebral area on two pigs. Four wounds each were randomly assigned to eleven treatment groups and inoculated with S. aureus ATCC 6538. Wounds were treated with approximately 200 mg of each treatment. On day 2, wounds were assessed using a flush and scrub technique to recover planktonic and biofilm-associated bacterial count, respectively.
Swine (2 animals) were used as the experimental animal due to the morphological, physiological, and biochemical similarities between swine skin and human skin.
• 44 deep partial thickness wounds measuring 10 mm×7 mm×0.5 mm were made in the peravertebral and thoracic areas of each animal • 4 wounds were randomly assigned to each of the 11 treatment groups Inoculation: • 25 μl of inoculum of 10^6 CFU/ml were inoculated into each wound and scrubbed lightly using a sterile Teflon spatula. Experimental Design: Pig 1: Treatment Groups
• Within 20 minutes of inoculation each wound was treated with the appropriate treatment. Each wound was treated with ≅200 mg of the appropriate treatment (days 0 and 1). • All wounds were covered with polyurethane film dressings Wound Recovery: • A sterile surgical steel cylinder (22 mm inside diameter) was placed over the wound area and 1 ml of all-purpose neutralizer solution was pipetted inside. • The site was gently flushed by pipetting in and out three times to remove the loosely attached bacteria (a), this aliquot represents the planktonic bacteria. • The same wound was then encircled using another sterile cylinder and 1 ml of all-purpose neutralizer solution was again pipetted into the cylinder and this time scrubbed with a sterile Teflon spatula for 30 seconds to remove the firmly attached bacteria (b), this aliquot was aspirated and represents biofilm bacteria.

[1] = swine wounds, 30000 μM (=15 mg/ml) DTPA used alone, topical, day 2

diethylenetriamine pentaacetic acid [DTPA]
reduction of S. aureus counts compared to the untreated group (30000 μM DTPA alone): 99.96% | bacterial counts (planktonic and biofilm) versus untreated control wounds (all concentrations of DTPA alone (30 to 30000 μM)): reduced bacterial counts | biofilm count [1]: 6.09±012 Log CFU/ml | planktonic bacterial count [1]: 5.19±0.29 Log CFU/ml

gentamicin [Gentamicin 0.1%, reference compound]
reduction in wound bioburden versus DTPA alone (0.1% Gentamicin positive control compared with all DTPA concentrations alone): substantially more reduction in wound bioburden than any of the DTPA concentrations alone
